In patent US7186741B2, “Neurotensin active 2,3,diaryl-pyrazolidine derivatives” (Solvay Pharmaceuticals B.V., priority 2002, dated 2007):

System: enzymes which degrade the neuropeptide neurotensin
Test: pharmacological activity of stereoisomers/racemates (test not specified)
Type: biochemical
Conditions: result in words; comparison of enantiomers or diastereomeric racemates
Text: The invention relates to a group of new 2,3-diaryl-pyrazolidine derivatives having inhibiting activity on enzymes which degrade the neuropeptide neurotensin.
The compounds according to the invention are active in inhibiting the abovementioned enzymes in the range of 5.0–8.0 (plC50 values), when tested according to the methods described in Biochem. J. 280, 421–426, and Eur. J. Biochem. 202, 269–276.

## O=C(NCC(=O)N1CCC(c2ccccc2Cl)N1c1ccccc1Cl)NC1C2CC3CC(C2)CC1C3 (stereo not shown) [Compound A12]
  pharmacological activity (active / inactive racemate, eutomer): eutomer
